In ChEMBL document CHEMBL2074154, “Modulation of the function of P-glycoprotein by estramustine” (J Natl Cancer Inst, 1994):

Target: ATP-dependent translocase ABCB1 (Homo sapiens, UniProt P08183)
Assay: TP_TRANSPORTER: increase in Vinblastine intracellular accumulation (Vinblastine: 1 uM, Estramustine: 50 uM) in SKVLB 1 cells
Type: functional, cell-based
Conditions: skvlb 1, 50 µM

Sequence of ATP-dependent translocase ABCB1 (P08183 whole entry): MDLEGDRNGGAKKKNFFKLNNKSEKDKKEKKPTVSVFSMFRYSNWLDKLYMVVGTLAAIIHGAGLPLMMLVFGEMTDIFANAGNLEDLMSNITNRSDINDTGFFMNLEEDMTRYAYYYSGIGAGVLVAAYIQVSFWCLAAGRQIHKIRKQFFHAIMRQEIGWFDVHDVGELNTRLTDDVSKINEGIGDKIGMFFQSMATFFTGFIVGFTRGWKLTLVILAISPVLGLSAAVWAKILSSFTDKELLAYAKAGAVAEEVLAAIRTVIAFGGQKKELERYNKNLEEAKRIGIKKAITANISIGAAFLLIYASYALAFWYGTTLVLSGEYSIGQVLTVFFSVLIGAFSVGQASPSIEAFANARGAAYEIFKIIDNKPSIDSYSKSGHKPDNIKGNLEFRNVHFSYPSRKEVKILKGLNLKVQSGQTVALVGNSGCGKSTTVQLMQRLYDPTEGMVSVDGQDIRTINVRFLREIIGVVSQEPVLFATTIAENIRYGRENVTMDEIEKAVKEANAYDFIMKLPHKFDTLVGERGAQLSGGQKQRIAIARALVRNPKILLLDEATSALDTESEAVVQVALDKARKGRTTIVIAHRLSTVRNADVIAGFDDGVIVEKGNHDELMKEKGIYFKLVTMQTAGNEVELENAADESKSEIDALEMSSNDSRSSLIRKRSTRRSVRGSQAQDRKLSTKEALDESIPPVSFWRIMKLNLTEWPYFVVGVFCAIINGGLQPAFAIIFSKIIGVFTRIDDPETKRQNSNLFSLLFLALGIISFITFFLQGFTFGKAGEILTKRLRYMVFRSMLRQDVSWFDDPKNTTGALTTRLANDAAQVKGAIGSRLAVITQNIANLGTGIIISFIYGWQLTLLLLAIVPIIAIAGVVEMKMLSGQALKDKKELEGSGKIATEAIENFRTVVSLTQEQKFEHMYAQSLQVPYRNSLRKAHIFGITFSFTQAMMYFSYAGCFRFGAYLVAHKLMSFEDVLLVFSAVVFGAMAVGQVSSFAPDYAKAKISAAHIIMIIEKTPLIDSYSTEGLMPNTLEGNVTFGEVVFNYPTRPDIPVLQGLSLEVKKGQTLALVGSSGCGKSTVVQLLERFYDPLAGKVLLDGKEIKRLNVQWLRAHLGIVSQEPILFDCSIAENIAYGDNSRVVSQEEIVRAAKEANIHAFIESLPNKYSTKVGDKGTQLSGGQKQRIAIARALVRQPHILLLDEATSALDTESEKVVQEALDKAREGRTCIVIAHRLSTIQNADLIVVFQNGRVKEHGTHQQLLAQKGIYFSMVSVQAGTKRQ

C[C@]12CC[C@@H]3c4ccc(OC(=O)N(CCCl)CCCl)cc4CC[C@H]3[C@@H]1CC[C@@H]2O [ESTRAMUSTINE]
Activity: inhibitor [+]
